According to patent US20230339896A1, “HPK1 INHIBITORS AND USES THEREOF” (QILU REGOR THERAPEUTICS INC., priority 2020, published 2023):
Where two headings read alike, the source gives them in different places.

Tests used:
[1] = biological target: HPK1 (Homo sapiens (Human), UniProt Q92918); experiment: HPK1 biochemical assay (ADP-GLO Kinase Assay)
From the text: This example used the ADP-GLO™ Kinase Assay to measure the effect of potential HPK1 inhibitor compounds on HPK1 kinase activity.
The ADP-GLO™ Kinase Assay (Promega Corp., Madison, WI) measures ADP formed from a kinase reaction. According to the manufacture, the ADP formed in a kinase assay is first converted into ATP, which is then used to generate light in a luciferase reaction. The luminescence generated correlates with kinase activity. An exemplary experimental setting is described below, though minor adjustments can be made in individual assays.
Serial 3-fold dilution of compoounds from 10 µM (top concentration) to 0.508 nM (lowest concentration). Positive control is 10 µM Reference + enzyme + substrate. Negative control is 1% DMSO + enzyme + substrate.
40 mM Tris pH7.5; 20 mM MgC12, 0.1 mg/ml BSA, 50 µM DTT Buffer stock
• 1) The compounds were diluted to 1 mM, by mixing 10 µL of 10 mM respective compound stocks with 90 µL of DMSO. • 2) The compounds were then diluted 3-fold for 10 doses (5 µL to 10 µL dilution) by BRAVO. The top compound conc. was 1 mM (100×), DMSO Conc. was 100%. • 3) Transfer 100 nL of each diluted compound sample to 384-well plate (Corning-4512) by ECHO. • 4) Centrifuge the plate at 1,500 rpm for 1 minute.
20 µM ATP, 0.2 µg/µL MBP in Kinase Buffer (final concentration: 10 µM ATP, 0.1 µg/µL MBP)
• 5. Preparation of 2× HPK1 working solution with assay buffer. HPK1 final concentration was 0.6 ng/µL. […] Add 5 µL/well of 2× HPK1 working solution, Centrifuge at 1,500 rpm for 1 minute. • 7. Add 5 µL/well of 2× ATP-Substrate, Centrifuge at 1,500 rpm for 1 minute. • 8. Incubate at 25° C. for 1 hour (or 6 hours for compounds with high potency). • 9. Add 5 µL/well ADP-GLO™ Reagent to stop the kinase reaction and deplete the unconsumed ATP. Centrifuge at 1,500 rpm for 1 minute. Incubate at 25° C. for 40 min. • 10. Add 10 µL of Kinase Detection Reagent to convert ADP to ATP. Centrifuge at 1,500 rpm for 1 minute. Incubate at 25° C. for 40 min. • 11. Record luminescence signal on an Envision plate reader (384-CTG).
The percent (%) inhibition at each concentration of compound is calculated based on and relative to the signal in the High and Low control wells contained within each assay plate. […] The concentrations and % inhibition values for tested compounds were plotted and the concentration of compound required for 50% inhibition (IC50) was determined with a Three-parameter logistic dose response equation. The endpoint value (IC50) for the reference peptide/compound was evaluated in each experiment as a quality control measure. If the endpoint value was within 3-fold of the expected value, then the experiment was deemed acceptable.

[2] = Metabolic stability in liver microsomes, mouse (MLM); format: in vitro ADME, CD-1 mouse; conditions: 1 µM compound, NADPH; for half-life at 1 µM: CD-1, mouse, liver microsomes, pH 7.4, 0.5 mg/mL protein, read-out: Metabolic Stability T½ (min), MLM
Protocol: (§1) This assay is for determining the stability of test compound in liver microsomes. The study will be conducted in accordance with International Bioethical Standards “World Medical Association Declaration of
(§2) Human, Sprague Dawley Rat, CD-1 mouse, Beagle Dog and Cynomolgus Monkey Liver Microsomes samples purchased from BD Gentest or RILD.
(§3) 0.1 M Potassium phosphate buffer, pH 7.4: • Buffer A: 1.0 L of 0.1 M monobasic Potassium Phosphate buffer containing 1.0 mM EDTA • Buffer B: 1.0 L of 0.1 M Dibasic Potassium Phosphate buffer containing 1.0 mM EDTA • Buffer C (K-phosphate buffer): 0.1 M Potassium Phosphate buffer, 1.0 mM EDTA, pH 7.4 by titrating 700 mL of buffer B with buffer A while monitoring the pH meter
(§4) • Prepare 3× test compound or positive control solutions: 500 µM spiking solution: add 10 µL of 10 mM DMSO stock solution into 190 µL ACN. • 1.5 µM spiking solution in microsomes (0.75 mg/mL): add 1.5 µL of 500 µM spiking solution and 18.75 µL of 20 mg/mL liver microsomes into 479.75 µL of K-phosphate buffer.
(§5) Add 30 µL of 1.5 µM spiking solution containing 0.75 mg/ml microsomes solution to the wells designated for 45 min, 30 min, 15 min, 5 min and 0 min. Pre-incubate the plate at 37° C. for 5 minutes.
(§6) Add 15 µL of NADPH stock solution (6 mM) to all of the wells, and start timing. Immediately, add 135 µL of ACN containing IS to the wells designated as Time 0.
(§7) At 5 min, 15 min, 30 min and 45 min, add 135 µL of ACN containing IS to the wells, respectively.
(§8) After quenching, centrifuge the reaction mixtures at 3220 x g for 10 min.
(§9) Transfer 50 µL of the supernatant from each well into a 96-well sample plate containing 50 µL of ultra pure water (Millipore) for LC/MS analysis.
(§10) The % parent remaining at each incubation time point is calculated by comparing to the peak area ratio (compound peak area/internal standard peak area) at T0 (0 minute incubation). The ln peak area ratio is plotted against time and the gradient of the line is determined. The half-life and metabolism of compounds is calculated based upon a natural log linear regression of the relative peak areas vs time. The half-life and intrinsic clearance (Clint) in microsomes are calculated using the equations below. • In Vitro T ½ (min) = 0.693/Elimination rate of constant (k) • Clint (µL/min/mg of microsomal protein) = (0.693 / In Vitro T ½) (Incubation Volume/ mg of microsomes)

[3] = Metabolic stability in liver microsomes, human (HLM); format: in vitro ADME; conditions: 1 µM compound, NADPH; for half-life at 1 µM: human, liver microsomes, pH 7.4, 0.5 mg/mL protein, read-out: Metabolic Stability T½ (min), HLM
Protocol: as §1, §2, §3, §4, §5, §6, §7, §8, §9, §10

[4] = ADP-GLO, 10 µM ATP, MBP substrate, read-out: HPK1 IC50
[5] = Table 12-1, read-out: HPK1 inhibition activities

HPK1, sequence (Q92918 whole entry): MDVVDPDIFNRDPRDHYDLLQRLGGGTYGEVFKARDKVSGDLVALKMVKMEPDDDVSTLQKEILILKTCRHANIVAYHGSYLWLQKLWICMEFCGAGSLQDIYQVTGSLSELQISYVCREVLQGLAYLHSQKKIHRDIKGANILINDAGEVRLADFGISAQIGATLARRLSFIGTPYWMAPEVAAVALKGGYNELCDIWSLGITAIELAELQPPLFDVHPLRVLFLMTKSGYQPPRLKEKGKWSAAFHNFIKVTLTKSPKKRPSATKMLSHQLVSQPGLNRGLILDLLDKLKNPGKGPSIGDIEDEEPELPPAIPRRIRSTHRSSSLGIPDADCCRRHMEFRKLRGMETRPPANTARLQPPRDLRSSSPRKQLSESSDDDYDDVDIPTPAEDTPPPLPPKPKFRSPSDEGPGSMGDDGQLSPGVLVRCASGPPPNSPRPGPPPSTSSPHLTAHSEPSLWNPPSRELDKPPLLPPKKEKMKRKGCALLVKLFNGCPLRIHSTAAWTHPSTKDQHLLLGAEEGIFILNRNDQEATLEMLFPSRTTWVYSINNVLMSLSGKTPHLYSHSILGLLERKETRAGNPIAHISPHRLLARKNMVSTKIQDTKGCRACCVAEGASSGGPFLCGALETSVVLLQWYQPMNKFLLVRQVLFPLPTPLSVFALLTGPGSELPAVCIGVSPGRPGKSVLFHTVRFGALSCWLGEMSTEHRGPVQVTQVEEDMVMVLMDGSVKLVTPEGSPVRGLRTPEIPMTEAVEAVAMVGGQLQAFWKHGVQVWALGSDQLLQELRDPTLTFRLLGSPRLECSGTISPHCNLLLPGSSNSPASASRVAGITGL

IC50 [1, 4] [pM]	half-life at 1 µM [2] [min]	half-life at 1 µM [3] [min]	IC50 [1, 5] [pM]	Metabolic Stability T½ (min), MLM ([2]; 0.5 mg/mL protein)	Metabolic Stability T½ (min), HLM ([3]; 0.5 mg/mL protein)	Compound
1500	145	145				COc1cc2c(cc1Nc1ncc(Cl)c(N3CC(CC(=O)O)c4ccccc43)n1)CN(C)CC2 (stereo not shown) [Compound 8, reference compound]
700	79.4	110	< 1000			CN1CCc2cc(F)c(Nc3ncc(Cl)c(N4CC(C)(CC(=O)O)c5ccccc54)n3)cc2C1 (stereo not shown) [Example 4, 2-(1-(5-chloro-2-((6-fluoro-2-methyl-1,2,3,4-tetrahydroisoquinolin-7-yl)amino)pyrimidin-4-yl)-3-methylindolin-3-yl)acetic acid]
1000	> 5000	237				COc1cc2c(cc1Nc1ncc(Cl)c(N3CC(C(=O)O)c4ccccc43)n1)CN(C)CC2 (stereo not shown) [Compound 7, reference compound]
500	46.1	51				COc1cc2c(cc1Nc1ncc(Cl)c(N3CC(C)(CC(=O)O)c4ccc(F)cc43)n1)CN(C)CC2 (stereo not shown) [Compound 10, reference compound]
200			< 1000	MLM: 86 min	HLM: 68 min	CN1CCc2cc(F)c(Nc3ncc(Cl)c(N4C[C@](C)(CC(=O)O)c5ccccc54)n3)cc2C1 (single isomer, unassigned) [Example 5, (R)-2-[1-[5-chloro-2-[(6-fluoro-2-methyl-3,4-dihydro-1H-isoquinolin-7-yl)amino]pyrimidin-4-yl]-3-methyl-indolin-3-yl]acetic acid or (S)-2-[1-[5-chloro-2-[(6-fluoro-2-methyl-3,4-dihydro-1H-isoquinolin-7-yl)amino]pyrimidin-4-yl]-3-methyl-indolin-3-yl]acetic acid]
500	84	54.4	< 1000			COc1cc2c(cc1Nc1ncc(Cl)c(N3CC(C)(CC(=O)O)c4ccccc43)n1)CN(C)CC2 (stereo not shown) [Example 1, 2-(1-(5-chloro-2-((6-methoxy-2-methyl-1,2,3,4-tetrahydroisoquinolin-7-yl)amino)pyrimidin-4-yl)-3-methylindolin-3-yl)acetic acid]
200	101	90.8	< 1000			COc1cc2c(cc1Nc1ncc(Cl)c(N3CC(C)(CC(=O)O)c4ccccc43)n1)CN(C)CC2 (single isomer, unassigned) [Example 2, (R)-2-(1-(5-chloro-2-((6-methoxy-2-methyl-1,2,3,4-tetrahydroisoquinolin-7-yl)amino)pyrimidin-4-yl)-3-methylindolin-3-yl)acetic acid or (S)-2-(1-(5-chloro-2-((6-methoxy-2-methyl-1,2,3,4-tetrahydroisoquinolin-7-yl)amino)pyrimidin-4-yl)-3-methylindolin-3-yl)acetic acid]
